We go through 18 compounds from ChEMBL document CHEMBL4130433, “Acridone-pyrimidine hybrids- design, synthesis, cytotoxicity studies in resistant and sensitive cancer cells and molecular docking studies” (Eur J Med Chem, 2017).

The structures appear in SMILES notation. pIC50: −log10 of the molar value.

For one data set, the system named is K562. As to the kind of experiment: Cytotoxicity against human K562 cells by MTT assay. The format is functional, cell-based. (In general: Formazan colour is commonly taken as a measure of viable cells.)
Data set [1] is described as follows: Cytotoxicity against African green monkey Vero cells after 72 hrs by MTT assay. The format is cell-based. To be noted: chlorocebus sabaeus.
Data set [2] concerns the target RAC-alpha serine/threonine-protein kinase (Homo sapiens, UniProt P31749). Description: Inhibition of PH domain lacking AKT1 (unknown origin) using Tamara-labeled GRPRTSSFAEG peptide as substrate after 90 mins by fluorescence polarization IMAP assay. Background: Polarisation of emitted light reports the rotation of a fluorescent probe.
In data set [3] the test system is MDA-MB-231. As to the kind of experiment: Antiproliferative activity against human MDA-MB-231 cells after 72 hrs by MTT assay. The format is functional, cell-based. To be noted: MDA-MB-231, 72 h.
Data set [4] has as its system MCF7. Description: Antiproliferative activity against human MCF7 cells after 72 hrs by MTT assay. The format is functional, cell-based. Conditions: MCF7, 72 h.
The next data set concerns HeLa. Description: Antiproliferative activity against human HeLa cells after 72 hrs by MTT assay. The format is functional, cell-based.
Another data set relates to A549. As to the kind of experiment: cells. To be noted: Homo sapiens, A549, 72 h.
Data set [5] has as its system MDA-MB-231. Description: Effect on total AKT protein expression in human MDA-MB-231 cells at antiproliferative IC50 after 48 hrs by Western blot method. The format is cell-based. To be noted: mda-mb-231, 48 h. For orientation: In western blotting, separated proteins are transferred to a membrane and probed.
For data set [6], the system named is MCF7. Description: Cytotoxicity against human MCF7 cells by MTT assay. Format: functional, cell-based.
The test system of data set [7] is 2008. As to the kind of experiment: Antiproliferative activity against human 2008 cells after 72 hrs by MTT assay. The format is functional, cell-based. To be noted: Homo sapiens, 2008, 72 h.
Data set [8] relates to SW1573. Description: Antiproliferative activity against resistant human SW1573 2R 160 cells harboring P-gp after 72 hrs by MTT assay. Format: functional, cell-based. Conditions: SW1573, 72 h.
The nature of data set [9]: Antiproliferative activity against human MCF7/DX cells after 72 hrs by MTT assay. The format is functional, cell-based.
The subject of data set [10] is 2008. Description: Antiproliferative activity against resistant human 2008 cells clone 4 harboring MRP1 after 72 hrs by MTT assay. The format is functional, cell-based. To be noted: Homo sapiens, 2008, 72 h.
Data set [11] can be described thus: Antiproliferative activity against human MCF7/MX cells after 72 hrs by MTT assay. The format is functional, cell-based.
The subject of data set [12] is SW1573. Description: Antiproliferative activity against resistant human SW1573 2R 120 cells harboring MRP1 after 72 hrs by MTT assay. The format is functional, cell-based. To be noted: SW1573, 72 h.
Data set [13] concerns SW1573. As to the kind of experiment: Antiproliferative activity against human SW1573 cells after 72 hrs by MTT assay. Format: functional, cell-based. To be noted: SW1573, 72 h.
Data set [14] has as its system 2008. Description: Antiproliferative activity against resistant human 2008 cells clone 6 harboring MRP1 after 72 hrs by MTT assay. Format: functional, cell-based. Conditions: Homo sapiens, 2008, 72 h.

Chain of RAC-alpha serine/threonine-protein kinase (P31749 whole entry, the tested form may be a part): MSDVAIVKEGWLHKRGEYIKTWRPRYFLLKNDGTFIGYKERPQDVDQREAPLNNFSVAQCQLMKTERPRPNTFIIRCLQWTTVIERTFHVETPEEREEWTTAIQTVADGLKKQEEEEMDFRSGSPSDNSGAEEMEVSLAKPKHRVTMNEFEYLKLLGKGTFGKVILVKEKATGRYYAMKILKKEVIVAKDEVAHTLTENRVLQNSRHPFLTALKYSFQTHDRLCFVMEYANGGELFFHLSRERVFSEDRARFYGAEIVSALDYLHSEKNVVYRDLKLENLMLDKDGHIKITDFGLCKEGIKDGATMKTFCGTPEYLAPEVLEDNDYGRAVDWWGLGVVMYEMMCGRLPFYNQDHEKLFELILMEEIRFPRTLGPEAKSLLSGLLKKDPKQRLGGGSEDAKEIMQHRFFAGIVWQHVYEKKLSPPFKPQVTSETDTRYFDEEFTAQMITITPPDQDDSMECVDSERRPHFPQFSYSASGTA
Description for A549: Antiproliferative activity against human A549 cells after 72 hrs by MTT assay

On to `Cc1cccc2c(=O)c3c(NCc4ccccc4)ccc(C(=O)NCCN(C)C)c3[nH]c12`, for which the pIC50 in the data set on K562 was 6.34.

`CCOC(=O)c1c(C)nc(NNC(=O)c2cccc3c(=O)c4ccccc4[nH]c23)nc1-c1ccc(F)cc1` had a half-maximal cytotoxic concentration (CC50) at 72 h in data set [1] of 58.2 µM. Further, the negative-log IC50 (pIC50) in data set [2] was 6.75; with MDA-MB-231 [3] it was < 4.00; in the data set on MCF7 [4], < 4.00; in the data set with HeLa, 4.33; with A549, < 4.00.

`CCOC(=O)c1c(C)nc(NNC(=O)c2cccc3c(=O)c4ccccc4[nH]c23)nc1-c1ccccc1F` yielded a CC50 at 72 h in data set [1] of 61.3 µM. Besides, the pIC50 is 8.09 in data set [2]; 5.20 with MDA-MB-231 [3]; 5.14 with MCF7 [4]; 4.28 in the data set with HeLa; 5.51 with A549. Further, the Activity result in the data set on MDA-MB-231 [5] is “Non-Toxic”.

As for `CCOC(=O)c1c(C)nc(NNC(=O)c2cccc3c(=O)c4ccccc4[nH]c23)nc1-c1ccc(C)cc1`, in data set [1], the half-maximal cytotoxic concentration (CC50) at 72 h came out at 72.3 µM. Also, the pIC50 in data set [2] is 6.01; in the data set on MDA-MB-231 [3], 5.25; with MCF7 [4], 4.94; with HeLa, 4.31; in the data set on A549, 5.01.

For `COC(=O)c1c(C)nc(NNC(=O)c2cccc3c(=O)c4ccccc4[nH]c23)nc1-c1ccc(OC)cc1`, the cytotoxic concentration (CC50) at 72 h in data set [1] is 86.2 µM. Also, the negative-log IC50 (pIC50) in data set [2] was 6.19; in the data set with MDA-MB-231 [3], 4.13; in the data set on MCF7 [4], 4.28; in the data set on HeLa, 4.43; with A549, 4.35.

In data set [1], `CCOC(=O)c1c(C)nc(NNC(=O)c2cccc3c(=O)c4ccccc4[nH]c23)nc1-c1cccc(OC)c1` gave a CC50 at 72 h of 64.1 µM. Also, the pIC50 in [2] was 6.60; in the data set on MDA-MB-231 [3] it was < 4.00; with MCF7 [4], < 4.00; in the data set with HeLa, < 4.00; in the data set with A549 it was < 4.00.

Turning to `CCOC(=O)c1c(C)nc(NNC(=O)c2cccc3c(=O)c4ccccc4[nH]c23)nc1-c1ccccc1`, it took 92.8 µM to reach half-maximal cytotoxicity in data set [1] (CC50 at 72 h). The negative logarithm of the IC50 (pIC50) in [2] is 8.33; in the data set on MDA-MB-231 [3] it was 4.71; in the data set on MCF7 [4] it was 4.81; in the data set with HeLa, 4.34; with A549, 5.07. Moreover, the Activity entry in the data set with MDA-MB-231 [5] was “Non-Toxic”.

`COC(=O)c1c(C)nc(NNC(=O)c2cccc3c(=O)c4ccccc4[nH]c23)nc1-c1ccccc1F` came in with a half-maximal cytotoxic concentration (CC50) at 72 h in [1] of 76.1 µM. Besides, the pIC50 was 6.36 in [2]; 4.38 with MDA-MB-231 [3]; 4.59 in the data set with MCF7 [4]; 4.17 in the data set on HeLa; 4.69 in the data set on A549.

As for `COc1ccc(Cn2cc(Cn3c4ccccc4c(=O)c4cc(OC)ccc43)nn2)cc1`, in the data set on MCF7 [6], the pIC50 was 4.96.

Turning to `COC(=O)c1c(C)nc(NNC(=O)c2cccc3c(=O)c4ccccc4[nH]c23)nc1-c1ccc(F)cc1`, the negative logarithm of the IC50 (pIC50) in the data set on 2008 [7] is 4.64; in data set [2], 6.50; in the data set with MDA-MB-231 [3], 4.25; in the data set on SW1573 [8], 4.21; in data set [9] it was 4.35; with 2008 [10], 4.62. Moreover, the negative logarithm of the IC50 (pIC50) with MCF7 [4] was 4.48; in the data set on HeLa, 4.35; in [11], 4.52; in the data set on SW1573 [12], < 4.00; in the data set with A549, 4.44; with SW1573 [13] it was 4.12. This compound also showed a negative logarithm of the IC50 (pIC50) in the data set with 2008 [14] of 4.57. This compound gave a CC50 at 72 h in data set [1] of 78.2 µM.

`CCOC(=O)c1c(C)nc(NNC(=O)c2cccc3c(=O)c4ccccc4[nH]c23)nc1-c1ccc(OC)cc1` displayed a CC50 at 72 h in data set [1] of 82.3 µM. Besides, the pIC50 in data set [2] is 8.76; in the data set on MDA-MB-231 [3] it was 5.15; with MCF7 [4], 4.98; in the data set on HeLa, 4.13; in the data set on A549, 5.49. For the same compound, the Activity entry with MDA-MB-231 [5] is recorded as “Non-Toxic”.

For `COC(=O)c1c(C)nc(NNC(=O)c2cccc3c(=O)c4ccccc4[nH]c23)nc1-c1cccc(OC)c1`, the pIC50 in the data set on 2008 [7] is 4.47; in [2] it was 6.32; in the data set with MDA-MB-231 [3], 4.23; with SW1573 [8], 5.00; in [9], 4.11; in the data set on 2008 [10], 4.13. The pIC50 is 4.49 with MCF7 [4]; 4.14 in the data set on HeLa; 4.52 in [11]; < 4.00 with SW1573 [12]; 4.57 in the data set on A549; 5.30 in the data set with SW1573 [13]. In the data set on 2008 [14], this compound had a pIC50 of 4.14. For the same compound, in data set [1], the CC50 at 72 h was 95.1 µM.

Consider `CCOC(=O)c1c(C)nc(NNC(=O)c2cccc3c(=O)c4ccccc4[nH]c23)nc1-c1ccc(OC)c(OC)c1`, for which the negative-log IC50 (pIC50) is 4.82 in the data set on 2008 [7]; 6.94 in [2]; 4.33 in the data set on MDA-MB-231 [3]; 4.21 in the data set on SW1573 [8]; 4.52 in data set [9]; 4.60 in the data set with 2008 [10]. Moreover, the negative-log IC50 (pIC50) in the data set with MCF7 [4] was 4.59; in the data set with HeLa, 4.24; in data set [11] it was 4.42; in the data set with SW1573 [12], 4.42; in the data set on A549, 4.38; with SW1573 [13], 4.35. Besides, the negative-log IC50 (pIC50) with 2008 [14] was 4.72. Further, the CC50 at 72 h in data set [1] was determined as 84.3 µM.

In [1], `COC(=O)c1c(C)nc(NNC(=O)c2cccc3c(=O)c4ccccc4[nH]c23)nc1-c1ccccc1` registered a half-maximal cytotoxic concentration (CC50) at 72 h of 80 µM. The negative-log IC50 (pIC50) in data set [2] is 7.25; in the data set with MDA-MB-231 [3], 4.32; in the data set on MCF7 [4], 4.44; with HeLa, 4.25; in the data set on A549, 4.69.

Consider `CCOC(=O)c1c(C)nc(NNC(=O)c2cccc3c(=O)c4ccccc4[nH]c23)nc1CC(C)C`, for which the CC50 at 72 h in [1] was found to be 78.2 µM. The negative-log IC50 (pIC50) in [2] was 7.92; in the data set on MDA-MB-231 [3], 5.06; in the data set with MCF7 [4] it was 5.36; in the data set on HeLa, 4.41; with A549, 5.41. In addition, the Activity entry with MDA-MB-231 [5] was “Non-Toxic”.

Compound `COC(=O)c1c(C)nc(NNC(=O)c2cccc3c(=O)c4ccccc4[nH]c23)nc1-c1ccc(C)cc1` displayed a CC50 at 72 h in data set [1] of 64.2 µM. In addition, the pIC50 in data set [2] was 6.13; in the data set with MDA-MB-231 [3], 4.63; with MCF7 [4], 4.34; in the data set with HeLa, 4.12; with A549, 4.39.

Regarding `COc1cccc2c1C(=O)c1c(O)c3c(c(O)c1C2=O)C[C@@](O)(C(=O)CO)C[C@@H]3O[C@H]1C[C@H](N)[C@H](O)[C@H](C)O1` [DOXORUBICIN], the negative-log IC50 (pIC50) in the data set on A549 was 4.99. For the same compound, in the data set with MDA-MB-231 [5], the Activity result is given as “Non-Toxic”.

In turn, `C#Cc1cccc(Nc2ncnc3cc(OCCOC)c(OCCOC)cc23)c1` [ERLOTINIB] gave a negative logarithm of the IC50 (pIC50) in the data set with A549 of 4.67.

As usually defined, the pIC50 is the negative decadic logarithm of the IC50, by convention in mol/L. By CC50 is commonly meant the concentration that lowers cell viability or growth by half.
